Assay results reported in paper PMC12084297, “Cytoplasmic connexin43-microtubule interactions promote glioblastoma stem-like cell maintenance and tumorigenicity” (Cell Death & Disease, 2025).

Columns and labels:
VTC-034 GSCs = assay: Peptide uptake by confocal fluorescence microscopy, VTC-034 GSCs; assay type: in vitro ADME, human; conditions: 50 μM, 24 h, fluorophore-conjugated streptavidin
Procedure: Cells were washed once with warm PBS before fixing in 4% paraformaldehyde for 20 min at room temperature or ice-cold methanol for 5 min on ice, washed twice, and held in PBS at 4°C until immunostaining was conducted. Cells were permeabilized and blocked in 5% normal goat or donkey serum (Fisher Scientific) and 0.1% Triton X-100 in PBS for 2 h at room temperature. Primary antibodies rabbit anti-Cx43 (MilliporeSigma; C6219), mouse anti-pan Cadherin (MilliporeSigma; C1821), or mouse anti-α-tubulin (MilliporeSigma; T6199) were diluted in blocking buffer and labeling was performed overnight at 4 °C. Cells were washed six times with PBS (2 × quick, 2 × 10 min, 2 × 5 min) prior to incubating with goat anti-mouse or -rabbit IgG secondary antibodies (Thermo Fisher) conjugated to Alexa Fluor 488 (A-11029; A-11034), Alexa Fluor 555 (A-21424; A-21429), or Alexa Fluor 647 (A-21236; A-21245) for confocal; or donkey anti-mouse or -rabbit IgG secondary antibodies conjugated to CF568 (Biotium; 20105 and 20098) or Alexa Fluor 647 (Jackson Immunoresearch; 715-605-151 and 711-605-152) for stochastic optical reconstruction microscopy (STORM; see section below), for 1 h at room temperature. DAPI (Thermo Fisher) was included with secondary antibodies to counterstain nuclei for confocal only and was omitted from labeling for STORM. […]

β-tubulin = assay: Cellular thermal shift assay (CETSA), β-tubulin target engagement; assay type: binding, human; conditions: fresh VTC-037 GSC lysates, 3-fold dilutions 222.2-2.7 nM, 1 h, heat challenge 57 °C (Tagg(75)) 20 min, immunoblot, normalized to DMSO control
Procedure: For an initial determination of the melting profile of α- and β- tubulin, fresh lysates of GSCs prepared in non-denaturing buffer were dispensed into 96-well PCR plate in stem cell medium (approximately 10,000 cells/well/50 µl), and then subjected to temperature gradient (37–65 °C) for 20 min. Subsequently, centrifugation was performed at 14,000 rpm to sediment the unstable protein content. Supernatant was collected and SDS-PAGE gel was run, and immunodetection was performed to detect α- and β- tubulin using specific primary antibodies described above. A rabbit antibody against β-actin (Cell Signaling Technology; 4970) was used as negative control. Band intensities were quantified on LI-COR C-DiGit Blot Scanner, and subsequently Tagg(50) and Tagg(75) values were calculated for α- and β- tubulin. In a subsequent run, fresh lysates of GSCs were treated at various doses with 3-fold dilutions (222.2, 74.0, 24.7, 8.2 and 2.7 nM) of peptides JM2 and JM2-scrambled, together with DMSO as control, for 1 h. Samples were then subjected to heat challenge at 57 °C for 20 min, and unstable protein was removed by centrifugation step. Following an immunoblotting step, band intensities of the stable tubulin was quantified, and normalized to DMSO control. EC50 values of engagement for both peptide with α- and β- tubulin were subsequently calculated.

PDX GBM22 tumor = PDX GBM22 tumor growth in mouse flank; assay type: in vivo, mouse (athymic nude), human GBM22 cells; conditions: 300 μM intratumorally every day for 14 days, n = 7 mice per group
Procedure: Animal studies were approved by the Institutional Animal Care and Use Committee (IACUC) of Virginia Tech. Female athymic nude mice (Envigo) aged 6-8 weeks were used for the maintenance and propagation of PDX GBM22 cells. PDX GBM22 tumors were maintained by serial passage in nude mouse flanks as described previously. Briefly, tumors were harvested 14–18 days post-injection and glioblastoma cells were mechanically and enzymatically dissociated. […] After 2 days, tumors were measured and mice were randomly separated into three groups (7 mice per group), and vehicle/control (PBS), JM2-scrambled or JM2 were administered at 300 μM intratumorally every day for 14 days. Tumors were then measured by blinded investigators and harvested for analysis (see section below). Tumor volume was calculated using the formula (length × width^2)/2. […] After 7 days, tumors were measured and mice were randomly separated into three groups; vehicle/control (PBS), JM2-scrambled, and JM2 (3 mice per group). […] Tumor sizes were measured by electronic calipers at different times by blinded investigators, and tumor volume was calculated using the formula (length × width^2)/2.

Sequence | Peptide localization after uptake (VTC-034 GSCs) | EC50 (β-tubulin) [nM] | GBM22-derived tumor growth (PDX GBM22 tumor)
GSDVFKRKFVDRKVG [JM2-scrambled, reference compound] | localized within the cytoplasm of GSCs | > 200 | observed GBM22-derived tumor formation
VFFKGVKDRVKGRSD [JM2] | localized within the cytoplasm of GSCs | 7.9 | did not detect any significant tumor growth
